Results taken from PubChem BioAssay (NCI).
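How tested: cells in 96-well plates exposed to compound for 48 hours at five concentrations. GI50 marks 50% less growth. TGI: total growth inhibition.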

Legend:
Assay in all cases: growth of human tumour cells (NCI), 48 h
CCRF-CEM leukemia = test system: CCRF-CEM leukemia
LOX IMVI melanoma = test system: LOX IMVI melanoma
NCI-H460 lung = test system: NCI-H460 lung
OVCAR-8 ovarian = test system: OVCAR-8 ovarian
SF-268 CNS = test system: SF-268 CNS
XF 498 CNS = test system: XF 498 CNS
DU-145 prostate = test system: DU-145 prostate
HS 578T breast = test system: HS 578T breast
MDA-MB-231 breast = test system: MDA-MB-231 breast
PC-3 prostate = test system: PC-3 prostate

Row | SMILES | TGI (CCRF-CEM leukemia) | TGI (LOX IMVI melanoma) | TGI (NCI-H460 lung) | TGI (OVCAR-8 ovarian) | TGI (SF-268 CNS) | TGI (XF 498 CNS) | GI50 (CCRF-CEM leukemia) | GI50 (DU-145 prostate) | TGI (DU-145 prostate) | GI50 (HS 578T breast) | TGI (HS 578T breast) | GI50 (MDA-MB-231 breast) | TGI (MDA-MB-231 breast) | GI50 (PC-3 prostate) | TGI (PC-3 prostate) | GI50 (NCI-H460 lung) | GI50 (OVCAR-8 ovarian) | GI50 (SF-268 CNS) | GI50 (LOX IMVI melanoma)
1 | S=P1(N2CCCCC2)Oc2ccc3ccccc3c2-c2c(ccc3ccccc23)O1 | > 31.6 µM | > 100 µM | > 91.6 µM | > 100 µM | > 100 µM | > 100 µM |  |  |  |  |  |  |  |  |  |  |  |  | 
2 | N=C(N)c1ccc(-c2ccc(-c3ccccc3)s2)cc1 | 4.57 µM |  |  |  |  |  | 1.97 µM | 1.75 µM | 3.17 µM | 1.94 µM | 5.04 µM | 1.43 µM | 2.87 µM | 1.76 µM | 3.47 µM |  |  |  | 
3 | COc1cc(/C=C/c2cc(/C=C/c3ccc(O)c(OC)c3)nc(N)n2)ccc1O |  |  | 5.2 µM | 7.24 µM | 15.6 µM |  |  | 2.4 µM | 6.31 µM | 0.524 µM | 2.99 µM | 1.45 µM | 4.08 µM | 1.48 µM | 5.57 µM | 2.05 µM | 2.19 µM | 2.11 µM | 
4 | C=C1C(=O)C[C@@]23CCC[C@@]12CC(OCOC)C3 (stereo partly drawn) | 6.81 µM | 3.87 µM | 13.2 µM | 9.96 µM | 17.5 µM | 8.33 µM |  |  |  |  |  |  |  |  |  |  |  |  | 
5 | Nc1nc(Cl)cc(OCC2(CO)CC(OCc3ccccc3)C2)n1 (stereo not drawn) |  |  |  |  |  |  | 41.6 µM | 66.3 µM |  | 34 µM |  | 26.2 µM |  |  |  | 66.3 µM | 66.6 µM |  | 45.6 µM
6 | O=[N+]([O-])c1ccccc1NC1c2ccccc2Oc2ccccc21 | > 100 µM | > 100 µM | > 100 µM | > 100 µM | > 100 µM |  | 4.44 µM | 43 µM | > 100 µM | 8.35 µM | > 100 µM | 3.95 µM | 66.6 µM | 5.88 µM | > 100 µM | 3.87 µM | 6.73 µM | 8.06 µM | 5.52 µM
7 | COC(=O)c1cccc(N[C@@H]2c3cc4c(cc3C(c3cc(OC)c(O)c(OC)c3)[C@H]3C(=O)OCC32)OCO4)c1 (stereo partly drawn) | 5.23 µM | 11.3 µM | 2.24 µM | > 37 µM | > 42.5 µM | > 27.4 µM |  |  |  |  |  |  |  |  |  |  |  |  | 
8 | Cc1cc(C)c2c(c1)CC1(Cc3c(C)ccc(C)c3C1=O)C2=O (stereo not drawn) | > 100 µM |  | > 100 µM | > 100 µM | > 100 µM |  |  |  | > 100 µM |  | > 100 µM |  | > 100 µM |  | > 100 µM |  |  |  | 
9 | Cc1ccc([N+](=O)[O-])cc1S(=O)(=O)Nc1ccc(C2=NNC(c3ccccc3O)C2)cc1 (stereo not drawn) | > 100 µM | > 100 µM | 80.6 µM | > 100 µM | > 100 µM |  |  |  | > 100 µM |  | > 100 µM |  | > 100 µM |  | > 100 µM |  |  |  | 
10 | CCCCCCCC/C=C\CCCCCCCC(=O)O | 197 µM | 239 µM | 192 µM | 194 µM | 192 µM | 13.6 µM |  |  |  |  |  |  |  |  |  |  |  |  | 
11 | CCN(CC)CCCNc1ncc(C)c2[nH]c3ccncc3c12 | > 71.5 µM | 14.9 µM | 15.6 µM | 96.8 µM | 32.4 µM | 24 µM |  |  |  |  |  |  |  |  |  |  |  |  | 
12 | N=c1c2c(=S)n(-c3ccccc3)c(=S)n(-c3ccccc3)c2nc(SCCCN2CCN(c3cccc(Cl)c3)CC2)n1-c1ccccc1 | > 100 µM | > 100 µM | > 100 µM | > 100 µM |  |  |  |  | > 100 µM |  | > 100 µM |  | 70.9 µM |  | > 100 µM |  |  |  | 
13 | O=C(O)CNc1ccc(C(=O)O)cc1 | > 100 µM | > 100 µM | > 100 µM | > 100 µM | > 100 µM |  |  |  | > 100 µM |  | > 100 µM |  | > 100 µM |  | > 100 µM |  |  |  | 
14 | O=C(O)CS | > 100 µM | > 100 µM | > 100 µM |  | > 100 µM | > 100 µM |  |  |  |  |  |  |  |  |  |  |  |  | 
15 | CCNc1nnc(-c2nsc3ccccc23)s1 | > 100 µM | > 100 µM | 88.6 µM | > 100 µM | 80.9 µM |  |  |  |  |  |  |  |  |  |  |  |  |  | 
